This test concerns the target T1, High Temperature requirement A (LmHtrA) (Listeria monocytogenes, UniProt Q8YA67).
T1 sequence (Q8YA67 1-500): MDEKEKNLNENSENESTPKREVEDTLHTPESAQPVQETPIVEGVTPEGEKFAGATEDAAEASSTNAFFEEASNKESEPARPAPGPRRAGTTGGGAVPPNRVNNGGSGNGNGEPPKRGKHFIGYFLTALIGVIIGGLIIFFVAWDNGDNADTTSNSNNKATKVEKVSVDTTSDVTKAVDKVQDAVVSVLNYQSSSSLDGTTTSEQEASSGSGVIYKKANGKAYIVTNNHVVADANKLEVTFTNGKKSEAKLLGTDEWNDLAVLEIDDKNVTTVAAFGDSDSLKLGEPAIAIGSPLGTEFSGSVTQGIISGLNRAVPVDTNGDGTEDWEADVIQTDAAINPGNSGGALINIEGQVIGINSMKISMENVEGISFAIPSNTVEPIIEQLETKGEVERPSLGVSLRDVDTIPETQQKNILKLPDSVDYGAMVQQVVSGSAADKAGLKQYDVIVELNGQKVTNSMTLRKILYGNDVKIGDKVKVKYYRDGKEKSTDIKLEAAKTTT
Briefly: azo-casein cleavage, spectrophotometric. The class given is biochemical.

Usually IC50 stands for the concentration needed to halve the response being measured.

Counter-ions that a name gives are not always drawn.

Regarding `CN(C)C(=O)COC(=O)Cc1ccc(OC(=O)c2ccc(NC(=N)N)cc2)cc1` [CM, Camostat mesylate], the IC50 came out at 152 ± 7.5 µM.
Under `N=C(N)c1ccc2cc(OC(=O)c3ccc(N=C(N)N)cc3)ccc2c1` [NM, Nafamostat mesylate] stands 6.6 ± 0.4 µM.
Turning to `CCOC(=O)c1ccc(OC(=O)CCCCCNC(=N)N)cc1` [GM, Gabexate mesylate], it took 80.6 ± 8.5 µM to reach half-maximal inhibition (IC50).

These data come from PMC10123570 (The Protein Journal, 2023).
